Experimental data: paper PMC7684578, “Isopedopeptins A–H: Cationic Cyclic Lipodepsipeptides from Pedobacter cryoconitis UP508 Targeting WHO Top-Priority Carbapenem-Resistant Bacteria” (ACS Chemical Biology, 2020)
Converted amounts (≈) assume the structure as drawn. Starred links: 1 amine or outer side, 2 acyl side, 3 side chain; linkers in the order of their positions; H or OH if unused. Positions of bridges follow the written chain, without caps; N, C: chain ends. Non-standard residues stand in square brackets, D forms with d. Residues, ends and D or L forms follow the SMILES beside them. X4 = CC(C)CCC=CCCC[C@H](CC(=O)[*:1])O[*:2]; X6 = CC(C)CCCCC=CC[C@H](CC(=O)[*:1])O[*:2]; X5 = CC(C)CCCCCCC[C@H](CC(=O)[*:1])O[*:2]; X3 = CC(C)CCCCC[C@H](CC(=O)[*:1])O[*:2]; X7 = CCCCCCC=CC[C@H](CC(=O)[*:1])O[*:2]; X2 = CCCCCCC[C@H](CC(=O)[*:1])O[*:2]; Val(3-OH) = CC(C)(O)[C@H](N)C(=O)O; X1 = C/C=C(/N[*:1])C(=O)[*:2]; Dab = NCC[C@H](N)C(=O)O; Dap = NC[C@H](N)C(=O)O

What was measured:
Assay in all cases: MIC, broth micro-dilution, primary panel
Format in all cases: cell-based
B. cereus CCUG7414T = conditions: Bacillus cereus
Method: (§1) Isopedopeptin E (5): off-white solid; [α] D20 –36° (c 0.3 in methanol); UV (MeOH) λ max (log10 ε) 240 (3.8); 1H NMR (DMSO-d 6, 600 MHz), see Table S5; 13C NMR (DMSO-d 6, 150 MHz), see Table […]
(§2) Isopedopeptin F (6): off-white solid; [α] D20 –32° (c 0.05 in methanol); UV (MeOH) λ max (log10 ε) 240 (3.8); 1H NMR (DMSO-d 6, 600 MHz), see Table S6; 13C NMR (DMSO-d 6, 150 MHz), see Table […]
(§3) Isopedopeptin G (7): off-white solid; [α] D20 –49° (c 0.1 in methanol); UV (MeOH) λ max (log10 ε) 240 (4.0); 1H NMR (DMSO-d 6, 600 MHz), see Table S7; 13C NMR (DMSO-d 6, 150 MHz), see Table […]
(§4) Isopedopeptin H (8): off-white solid; [α] D20 –56° (c 0.2 in methanol); UV (MeOH) λ max (log10 ε) 240 (4.0); 1H NMR (DMSO-d 6, 600 MHz), see Table S8; 13C NMR (DMSO-d 6, 150 MHz), see Table […]
(§5) Minimal Inhibitory Concentration (MIC) against the primary panel of microorganisms.
(§6) The MIC for compounds 1–8 was measured by means of a broth micro-dilution method in 96-wells microtiter plates with the addition of E. coli LMG15862, LMG1041 T, E. cloacaeA. baumannii […]
(§7) H-29 and A. fumigatus J7, as test organisms. The test media were AM3 Broth (BD Difco Ltd) mixed with phosphate buffered saline (PBS, Amresco LLC, Solon, USA) in 1:4 ratio (E. coli, A. baumannii, E. cloacae, K. pneumoniae and P. aeruginosa), AM3 Broth mixed with PBS in 1:1 ratio (S. aureus), ME (A. fumigatus) and ISP2 (C. albicans). Prior to MIC determination, the cell concentration of tested bacterial/fungal pathogens was adjusted to ≅ 4 × 10^5 CFU/mL (acceptable range 2 – 6 × 10^5 CFU/mL). Cell concentration was confirmed by colony counting after diluting and plating the respective bacterial pathogen on VPA plates [VPA, 10 g Vegetable Peptone Broth (Oxoid Ltd., Basingstoke,UK), 15 g Bacto Agar (Difco Ltd, Tyrone) in 1 L deionised water] directly after each of MIC-tests. The cells of C. albicans were plated on ISP2 agar plates [ISP2, 15 g Bacto Agar (Difco Ltd) in 1 L deionised water] and respectively spores of A. fumigatus were plated on MEA plates.
(§8) Plates were, subsequently, incubated at 37 °C in the dark, and viable colonies counted after 16 to 24 h.
(§9) To estimate MIC values (concentration range between 0.05 and 50 µg/mL), solutions of the tested compounds (100, 10 and 1 and if needed 0.1 µg/mL in MeOH) were dispensed into wells of microtiter plate(s) and the solvent was evaporated in a fume-hood. Subsequently, suspensions of pathogen cells in the appropriate medium were dispensed to the wells of microtiter plates and the growth of pathogens were observed after 16 to 20 h of incubation at 37 °C in the dark. Positive controls were the respective pathogen cells suspended in untreated sterile media without addition of compounds(s) and negative controls were the media only. MIC values were defined as the lowest concentration of each compound with no visible growth of pathogen. All MIC tests were performed in triplicate and […]
(§10) MIC determination for compound 2 against an extended panel of bacterial strains.
(§11) Compound 2 was evaluated against a panel of Gram-negative bacteria (Hughes strain collection), including: A. baumannii ATCC 19606, wild-type; BM4454, multidrug-resistant clinical isolate; BM4652, efflux-defective derivative of BM4454; CH9622, colistin-resistant clinical isolate; E. coli ATCC 25922, wild-type; CH3130, efflux-defective ΔtolC mutant isogenic to ATCC 25922; D22, a drug-hypersensitive lpxC mutant of E. coli; CH3491, multidrug-resistant clinical isolate; CH9623 and CH9624, colistin-resistant clinical isolates carrying mcr-1; K. pneumoniae ATCC 13833, wild-type; […]
(§12) clinical isolate; CH9625 and CH9626, colistin-resistant clinical isolates; P. aeruginosa PAO1, wild-type; PAO750, efflux-defective mutant isogenic to PAO1. The in vitro antimicrobial activity of each compound was determined by measuring the MIC value using the broth micro-dilution technique in cation-adjusted Mueller-Hinton II broth (Becton-Dickinson, 212322) according to EUCAST and CLSI guidelines. Each compound prepared in MHII medium was dispensed into a 96-well round- […]

S. aureus LMG15975 = conditions: Staphylococcus aureus, LMG15975 / MRSA
Method: as §1, §2, §3, §4, §5, §6, §7, §8, §9, §10, §11, §12

E. coli LMG15862 = conditions: Escherichia coli, β-lactam.
Method: as §1, §2, §3, §4, §5, §6, §7, §8, §9, §10, §11, §12

C. albicans H-29 = conditions: Candida albicans, H29; WT
Method: as §1, §2, §3, §4, §5, §6, §7, §8, §9, §10, §11, §12

E. cloacae LMG2783T = conditions: Enterobacter cloacae, WT
Method: as §1, §2, §3, §4, §5, §6, §7, §8, §9, §10, §11, §12

A. baumannii LMG1041T = conditions: Acinetobacter baumannii, WT
Method: as §1, §2, §3, §4, §5, §6, §7, §8, §9, §10, §11, §12

A. fumigatus J7 = conditions: Aspergillus fumigatus
Method: as §1, §2, §3, §4, §5, §6, §7, §8, §9, §10, §11, §12

Row | Structure (SMILES) | MIC (B. cereus CCUG7414T) | MIC (S. aureus LMG15975) | MIC (E. coli LMG15862) | MIC (C. albicans H-29) | MIC (E. cloacae LMG2783T) | MIC (A. baumannii LMG1041T) | MIC (A. fumigatus J7)
1 | C/C=C1/NC(=O)[C@H](CCN)NC(=O)[C@H](CC(C)C)NC(=O)[C@H](CN)NC(=O)C[C@@H](CCCCCC(C)C)OC(=O)[C@H](CC(=O)O)NC(=O)[C@H](C(C)(C)O)NC(=O)[C@@H](Cc2ccccc2)NC(=O)[C@H](CN)NC(=O)[C@H]([C@@H](C)O)NC1=O [Compound 1, cyclo(3-hydroxy-9-methyldecanoyl-DAPA1-Leu-DABA-ABA-Thr-DAPA2-Phe-OHVal-Asp)] ([Dap]L[Dab][X1]T[Dap][dF][Val(3-OH)]D; linker N-C via X3) | > 32 µg/mL | > 32 µg/mL | 4 µg/mL (≈ 3.54 µM) | 32 µg/mL (≈ 28.3 µM) | 16 µg/mL (≈ 14.1 µM) | 4 µg/mL (≈ 3.54 µM) | > 32 µg/mL
2 | C/C=C1/NC(=O)[C@H](CCN)NC(=O)[C@H](CC(C)C)NC(=O)[C@H](CN)NC(=O)C[C@@H](CCCCCCC)OC(=O)[C@H](CC(=O)O)NC(=O)[C@H](C(C)(C)O)NC(=O)[C@@H](Cc2ccccc2)NC(=O)[C@H](CN)NC(=O)[C@H]([C@@H](C)O)NC1=O [Compound 2, isopedopeptin B] ([Dap]L[Dab][X1]T[Dap][dF][Val(3-OH)]D; linker N-C via X2) | > 32 µg/mL | 32 µg/mL (≈ 28.6 µM) | 8 µg/mL (≈ 7.16 µM) | 32 µg/mL (≈ 28.6 µM) | 32 µg/mL (≈ 28.6 µM) | 8 µg/mL (≈ 7.16 µM) | > 32 µg/mL
3 | C/C=C1/NC(=O)[C@H](CCN)NC(=O)[C@H](CC(C)C)NC(=O)[C@H](CN)NC(=O)C[C@@H](CC=CCCCCCC)OC(=O)[C@H](CC(=O)O)NC(=O)[C@H](C(C)(C)O)NC(=O)[C@@H](Cc2ccccc2)NC(=O)[C@H](CN)NC(=O)[C@H]([C@@H](C)O)NC1=O [Compound 3, isopedopeptin C] ([Dap]L[Dab][X1]T[Dap][dF][Val(3-OH)]D; linker N-C via X7) | 32 µg/mL (≈ 28 µM) | > 32 µg/mL | 16 µg/mL (≈ 14 µM) | 32 µg/mL (≈ 28 µM) | 32 µg/mL (≈ 28 µM) | 16 µg/mL (≈ 14 µM) | > 32 µg/mL
4 | C/C=C1/NC(=O)[C@H](CCN)NC(=O)[C@H](CC(C)C)NC(=O)[C@H](CN)NC(=O)C[C@@H](CCCCCCC)OC(=O)[C@H](CC(=O)O)NC(=O)[C@H](C(C)C)NC(=O)[C@@H](Cc2ccccc2)NC(=O)[C@H](CN)NC(=O)[C@H]([C@@H](C)O)NC1=O [Compound 4, isopedopeptin D] ([Dap]L[Dab][X1]T[Dap][dF]VD; linker N-C via X2) | 32 µg/mL (≈ 29.1 µM) | > 32 µg/mL | 32 µg/mL (≈ 29.1 µM) | > 32 µg/mL | 32 µg/mL (≈ 29.1 µM) | 16 µg/mL (≈ 14.5 µM) | > 32 µg/mL
5 | C/C=C1/NC(=O)[C@H](CCN)NC(=O)[C@H](CC(C)C)NC(=O)[C@H](CN)NC(=O)C[C@@H](CCCCCC(C)C)OC(=O)[C@H](CC(=O)O)NC(=O)[C@H](C(C)C)NC(=O)[C@@H](Cc2ccccc2)NC(=O)[C@H](CN)NC(=O)[C@H]([C@@H](C)O)NC1=O [Compound 5, Isopedopeptin E] ([Dap]L[Dab][X1]T[Dap][dF]VD; linker N-C via X3) | 16 µg/mL (≈ 14.3 µM) | > 32 µg/mL | > 32 µg/mL | > 32 µg/mL | > 32 µg/mL | 32 µg/mL (≈ 28.7 µM) | > 32 µg/mL
6 | C/C=C1/NC(=O)[C@H](CCN)NC(=O)[C@H](CC(C)C)NC(=O)[C@H](CN)NC(=O)C[C@@H](CCCCCCCC(C)C)OC(=O)[C@H](CC(=O)O)NC(=O)[C@H](C(C)(C)O)NC(=O)[C@@H](Cc2ccccc2)NC(=O)[C@H](CN)NC(=O)[C@H]([C@@H](C)O)NC1=O [Compound 6, Isopedopeptin F] ([Dap]L[Dab][X1]T[Dap][dF][Val(3-OH)]D; linker N-C via X5) | 32 µg/mL (≈ 27.6 µM) | 32 µg/mL (≈ 27.6 µM) | 16 µg/mL (≈ 13.8 µM) | > 32 µg/mL | 32 µg/mL (≈ 27.6 µM) | 16 µg/mL (≈ 13.8 µM) | > 32 µg/mL
7 | C/C=C1/NC(=O)[C@H](CCN)NC(=O)[C@H](CC(C)C)NC(=O)[C@H](CN)NC(=O)C[C@@H](CCCC=CCCC(C)C)OC(=O)[C@H](CC(=O)O)NC(=O)[C@H](C(C)C)NC(=O)[C@@H](Cc2ccccc2)NC(=O)[C@H](CN)NC(=O)[C@H]([C@@H](C)O)NC1=O [Compound 7, Isopedopeptin G] ([Dap]L[Dab][X1]T[Dap][dF]VD; linker N-C via X4) | 16 µg/mL (≈ 14 µM) | 16 µg/mL (≈ 14 µM) | 8 µg/mL (≈ 7.01 µM) | > 32 µg/mL | 16 µg/mL (≈ 14 µM) | 8 µg/mL (≈ 7.01 µM) | > 32 µg/mL
8 | C/C=C1/NC(=O)[C@H](CCN)NC(=O)[C@H](CC(C)C)NC(=O)[C@H](CN)NC(=O)C[C@@H](CC=CCCCCC(C)C)OC(=O)[C@H](CC(=O)O)NC(=O)[C@H](C(C)C)NC(=O)[C@@H](Cc2ccccc2)NC(=O)[C@H](CN)NC(=O)[C@H]([C@@H](C)O)NC1=O [Compound 8, Isopedopeptin H] ([Dap]L[Dab][X1]T[Dap][dF]VD; linker N-C via X6) | 32 µg/mL (≈ 28 µM) | 16 µg/mL (≈ 14 µM) | 16 µg/mL (≈ 14 µM) | > 32 µg/mL | 16 µg/mL (≈ 14 µM) | 16 µg/mL (≈ 14 µM) | > 32 µg/mL
